Data as given in patent publication US9446147B2, “Membrane stabilizing compositions and methods” (The Ohio State University, priority 2011, dated 2016).

Columns and labels:
[1] = contents release assay of calcein-loaded vesicles in fetal bovine serum; type: in vitro ADME; conditions: vesicles of 80% DPPC and 20% dimer
Excerpt: […] Vesicle stabilization by the glycolipid derivatives was strongly affected by degree of oligomerization and solubility. […] Though there is clearly an advantage to structures larger than a dimer, larger oligomer or polymers may be limited by their ability to incorporate into the lipid membrane. Thus, it was difficult to achieve mole percent incorporation levels higher than 10% for phospholipid glycopolymer 9 and 30% for cholesterol glycopolymer 8.

[2] = dehydration-rehydration of supported lipid bilayers (SLBs), microscopy and FRAP; type: physicochemical; conditions: supported lipid bilayers on glass
Method: (§1) The anhydrobiotic membrane preservation properties of the trehalose polymers on supported lipid bilayers (SLBs) were tested. […] Moreover, lyophilized calcein-loaded trehalose-polymer vesicles could be rehydrated without contents loss and maintenance of vesicle size distribution. The cryo-preservative effects of trehalose and other sugars on proteins and membrane structures has been known for some time, though high solution concentrations are required; here we find that preservative properties at mole ratios of about 10% to about 30%. This preservative property permits long-term anhydrous storage of reagents without compromising therapeutic effect. Thus, membrane-anchored polysaccharides may be a useful biotechnology tool for production of systemic drug carriers that are stable to attack from serum proteins, dehydration and freeze-drying.
FIGS. 10A and 10B are photomicrographs of supported lipid bilayers containing (A) phospholipid dimer 7 or (B) phospholipid polymer. The mole percent is as indicated. The top rows of (A) and (B) show freshly formed SLBs; whereas the bottom rows show SLBs after drying and rehydration. The photos were taken at 10× magnification and the scale bar is 100 μm. FIGS. 10C and 10D show FRAP containing SLBs with 10% phospholipid polymer before and after dehydration, respectively. These photos were taken at 40× magnification and the scale bar is 40 μm.

[3] = lyophilization and rehydration of calcein-loaded LUVs (contents loss, DLS, cryo-TEM); type: physicochemical; conditions: used in place of cholesterol glycopolymer 8 in DPPC or hydrogenated ePC LUVs
Method: as §1
Sugar solutions (10:1 sugar:lipid) are known to protect LUVs from contents loss and fusion upon lyophilization and rehydration. It was find that covalent presentation of polymeric trehalose on multiple lipid anchors confers significant membrane anhydrobiotic and cryo-protection at sugar:lipid ratios of 0.1-0.3. […] LUVs containing phospholipid glycodimer 7 and phospholipid glycopolymer 9 readily deposited, possibly by virtue of higher membrane fluidity.

Compound: trehalose cholesterol thioglycolate thioether dimer
- contents loss upon exposure to serum [1]: greatly minimized
- protection of SLBs from delamination on drying/rehydration [2]: protect supported lipid bilayers from delamination upon drying

Compound: CC(C)CCC[C@@H](C)[C@H]1CC[C@H]2[C@@H]3CC=C4C[C@@H](O)CC[C@]4(C)[C@H]3CC[C@]12C [cholesterol]
- contents loss and fusion after lyophilization and rehydration [3]: total contents loss and extensive fusion
